Measurements from US20050197350A1, “Novel quinoline, tetrahydroquinazoline, and pyrimidine derivatives and methods of treatment related to the use thereof” (TAISHO PHARMACEUTICAL CO., LTD., priority 2003, published 2005).

system: MCH receptors; assay: MCH receptor activity class (method not given); conditions: MCH receptor; class by percent of control at 10^-7 M or IC50

For CN(C)c1cc(N[C@H]2CC[C@@H](CNC(=O)c3ccc4nonc4c3)CC2)nc2ccccc12 [compound 150, N-[(cis-4-{[4-(dimethylamino)quinolin-2-yl]amino}cyclohexyl)methyl]-2,1,3-benzoxadiazole-5-carboxamide], which class is on record?
The class was 3 (Class 3 The value of percent of control at 10^−7 M was more than 60% or the value of IC50 was more than 200 nM.).

How did the class turn out when CN(C)c1cc(N[C@H]2CC[C@@H](CNC(=O)c3cccc(Cl)c3)CC2)nc2ccccc12 [compound 151] was run?
The class was 3 (Class 3 The value of percent of control at 10^−7 M was more than 60% or the value of IC50 was more than 200 nM.).

With CN(C)c1cc(N[C@H]2CC[C@@H](CNC(=O)c3ccc(Cl)cc3)CC2)nc2ccccc12 [compound 152] as the compound, how does the class read?
The class was 3 (Class 3 The value of percent of control at 10^−7 M was more than 60% or the value of IC50 was more than 200 nM.).

For CN(C)c1cc(N[C@H]2CC[C@@H](CNC(=O)/C=C/c3ccccc3)CC2)nc2ccccc12 [compound 153], which class is on record?
The class was 3 (Class 3 The value of percent of control at 10^−7 M was more than 60% or the value of IC50 was more than 200 nM.).

For CN(C)c1cc(N[C@H]2CC[C@@H](CNC(=O)c3ccc(Cl)c([N+](=O)[O-])c3)CC2)nc2ccccc12 [compound 154], which class is on record?
The class was 3 (Class 3 The value of percent of control at 10^−7 M was more than 60% or the value of IC50 was more than 200 nM.).

For CN(C)c1cc(N[C@H]2CC[C@@H](CNC(=O)Cc3ccc(Cl)cc3)CC2)nc2ccccc12 [compound 155], which class is on record?
The class was 3 (Class 3 The value of percent of control at 10^−7 M was more than 60% or the value of IC50 was more than 200 nM.).

CN(C)c1cc(N[C@H]2CC[C@@H](CNC(=O)c3cccc(C#N)c3)CC2)nc2ccccc12 [compound 156] was tested. Which class did it give?
The class was 3 (Class 3 The value of percent of control at 10^−7 M was more than 60% or the value of IC50 was more than 200 nM.).

How did the class turn out when CN(C)c1cc(N[C@H]2CC[C@@H](CNC(=O)c3cc(Cl)cc(Cl)c3)CC2)nc2ccccc12 [compound 157] was run?
Its class is 3 (Class 3 The value of percent of control at 10^−7 M was more than 60% or the value of IC50 was more than 200 nM.).

For CN(C)c1cc(N[C@H]2CC[C@@H](CNC(=O)c3ccc(Cl)c(Cl)c3)CC2)nc2ccccc12 [compound 158], which class is on record?
Its class is 3 (Class 3 The value of percent of control at 10^−7 M was more than 60% or the value of IC50 was more than 200 nM.).

How did the class turn out when CN(C)c1cc(N[C@H]2CC[C@@H](CNC(=O)C(c3ccccc3)c3ccccc3)CC2)nc2ccccc12 [compound 159, N-[(cis-4-{[4-(dimethylamino)quinolin-2-yl]amino}cyclohexyl)methyl]-2,2-diphenylacetamide] was run?
The class was 2 (Class 2: The value of percent of control at 10^−7 M was from 40% to 60% or the value of IC′50 was from 50 nM to 200 nM.).

Which class does the source give for CN(C)c1cc(N[C@H]2CC[C@@H](CNC(=O)c3ccc(F)c(F)c3)CC2)nc2ccccc12 [compound 160, N-[(cis-4-{[4-(dimethylamino)quinolin-2-yl]amino}cyclohexyl)methyl]-3,4-difluorobenzamide] here?
The class was 3 (Class 3 The value of percent of control at 10^−7 M was more than 60% or the value of IC50 was more than 200 nM.).

With CN(C)c1cc(N[C@H]2CC[C@@H](CNC(=O)c3cc(F)cc(F)c3)CC2)nc2ccccc12 [compound 161, N-[(cis-4-{[4-(dimethylamino)quinolin-2-yl]amino}cyclohexyl)methyl]-3,5-difluorobenzamide] as the compound, how does the class read?
The class was 3 (Class 3 The value of percent of control at 10^−7 M was more than 60% or the value of IC50 was more than 200 nM.).

COc1ccc(OC)c(CC(=O)NC[C@H]2CC[C@@H](Nc3cc(N(C)C)c4ccccc4n3)CC2)c1 [compound 162] was tested. Which class did it give?
Its class is 3 (Class 3 The value of percent of control at 10^−7 M was more than 60% or the value of IC50 was more than 200 nM.).

Which class does the source give for CCSc1ncccc1C(=O)NC[C@H]1CC[C@@H](Nc2cc(N(C)C)c3ccccc3n2)CC1 [compound 163] here?
Its class is 3 (Class 3 The value of percent of control at 10^−7 M was more than 60% or the value of IC50 was more than 200 nM.).

Which class does the source give for CN(C)c1cc(N[C@H]2CC[C@@H](CNC(=O)c3ccc(F)cc3)CC2)nc2ccccc12 [compound 164, N-[(cis-4-{[4-(dimethylamino)quinolin-2-yl]amino}cyclohexyl)methyl]-4-fluorobenzamide] here?
Its class is 3 (Class 3 The value of percent of control at 10^−7 M was more than 60% or the value of IC50 was more than 200 nM.).

With CN(C)c1cc(N[C@H]2CC[C@@H](CNC(=O)c3cc(F)cc(C(F)(F)F)c3)CC2)nc2ccccc12 [compound 165] as the compound, how does the class read?
Its class is 3 (Class 3 The value of percent of control at 10^−7 M was more than 60% or the value of IC50 was more than 200 nM.).

For CN(C)c1cc(N[C@H]2CC[C@@H](CNC(=O)c3cc(F)c(Cl)cc3Cl)CC2)nc2ccccc12 [compound 166], which class is on record?
Its class is 3 (Class 3 The value of percent of control at 10^−7 M was more than 60% or the value of IC50 was more than 200 nM.).

With CCCCCC(=O)NC[C@H]1CC[C@@H](Nc2cc(N(C)C)c3ccccc3n2)CC1 [compound 167] as the compound, how does the class read?
Its class is 3 (Class 3 The value of percent of control at 10^−7 M was more than 60% or the value of IC50 was more than 200 nM.).

Which class does the source give for CN(C)c1cc(N[C@H]2CC[C@@H](CNC(=O)c3ccc(I)cc3)CC2)nc2ccccc12 [compound 168] here?
The class was 3 (Class 3 The value of percent of control at 10^−7 M was more than 60% or the value of IC50 was more than 200 nM.).

For CSc1ncccc1C(=O)NC[C@H]1CC[C@@H](Nc2cc(N(C)C)c3ccccc3n2)CC1 [compound 169], which class is on record?
The class was 3 (Class 3 The value of percent of control at 10^−7 M was more than 60% or the value of IC50 was more than 200 nM.).

Which class does the source give for Cc1ccc(C(=O)NC[C@H]2CC[C@@H](Nc3cc(N(C)C)c4ccccc4n3)CC2)cc1[N+](=O)[O-] [compound 170, N-[(cis-4-{[4-(dimethylamino)quinolin-2-yl]amino}cyclohexyl)methyl]-4-methyl-3-nitrobenzamide] here?
The class was 3 (Class 3 The value of percent of control at 10^−7 M was more than 60% or the value of IC50 was more than 200 nM.).

For CN(C)c1cc(N[C@H]2CC[C@@H](CNC(=O)c3cccc([N+](=O)[O-])c3)CC2)nc2ccccc12 [compound 171, N-[(cis-4-{[4-(dimethylamino)quinolin-2-yl]amino}cyclohexyl)methyl]-3-nitrobenzamide], which class is on record?
The class was 3 (Class 3 The value of percent of control at 10^−7 M was more than 60% or the value of IC50 was more than 200 nM.).

How did the class turn out when CN(C)c1cc(N[C@H]2CC[C@@H](CNC(=O)Cc3ccccc3)CC2)nc2ccccc12 [compound 172] was run?
The class was 3 (Class 3 The value of percent of control at 10^−7 M was more than 60% or the value of IC50 was more than 200 nM.).

Which class does the source give for CN(C)c1cc(N[C@H]2CC[C@@H](CNC(=O)C3C[C@H]3c3ccccc3)CC2)nc2ccccc12 (stereo partly shown) [compound 173] here?
Its class is 3 (Class 3 The value of percent of control at 10^−7 M was more than 60% or the value of IC50 was more than 200 nM.).

Which class does the source give for CN(C)c1cc(N[C@H]2CC[C@@H](CNC(=O)c3ccc4c(c3)OCO4)CC2)nc2ccccc12 [compound 174] here?
Its class is 3 (Class 3 The value of percent of control at 10^−7 M was more than 60% or the value of IC50 was more than 200 nM.).

With Cc1cccc(C(=O)NC[C@H]2CC[C@@H](Nc3cc(N(C)C)c4ccccc4n3)CC2)c1 [compound 177, N-[(cis-4-{[4-(dimethylamino)quinolin-2-yl]amino}cyclohexyl)methyl]-3-methylbenzamide] as the compound, how does the class read?
Its class is 3 (Class 3 The value of percent of control at 10^−7 M was more than 60% or the value of IC50 was more than 200 nM.).

Cc1ccc(C(=O)NC[C@H]2CC[C@@H](Nc3cc(N(C)C)c4ccccc4n3)CC2)cc1 [compound 178] was tested. Which class did it give?
The class was 3 (Class 3 The value of percent of control at 10^−7 M was more than 60% or the value of IC50 was more than 200 nM.).

With CN(C)c1cc(N[C@H]2CC[C@@H](CNC(=O)c3cccs3)CC2)nc2ccccc12 [compound 179] as the compound, how does the class read?
The class was 3 (Class 3 The value of percent of control at 10^−7 M was more than 60% or the value of IC50 was more than 200 nM.).

CN(C)c1cc(N[C@H]2CC[C@@H](CNC(=O)Cc3cccs3)CC2)nc2ccccc12 [compound 180] was tested. Which class did it give?
Its class is 3 (Class 3 The value of percent of control at 10^−7 M was more than 60% or the value of IC50 was more than 200 nM.).

For CN(C)c1cc(N[C@H]2CC[C@@H](CNC(=O)c3cccc(OC(F)(F)F)c3)CC2)nc2ccccc12 [compound 181, N-[(cis-4-{[4-(dimethylamino)quinolin-2-yl]amino}cyclohexyl)methyl]-3-(trifluoromethoxy)benzamide], which class is on record?
Its class is 3 (Class 3 The value of percent of control at 10^−7 M was more than 60% or the value of IC50 was more than 200 nM.).

Which class does the source give for CN(C)c1cc(NC2CCC(CNC(=O)OCc3ccccc3)CC2)nc2ccccc12 (stereo not shown) [compound 182] here?
Its class is 3 (Class 3 The value of percent of control at 10^−7 M was more than 60% or the value of IC50 was more than 200 nM.).

With CN(C)c1cc(NC2CCC(CNC(=O)OCc3ccc([N+](=O)[O-])cc3)CC2)nc2ccccc12 (stereo not shown) [compound 183] as the compound, how does the class read?
The class was 3 (Class 3 The value of percent of control at 10^−7 M was more than 60% or the value of IC50 was more than 200 nM.).

For Cc1cc(C(=O)NC[C@H]2CC[C@@H](Nc3cc(N(C)C)c4ccccc4n3)CC2)ccc1Br [compound 184], which class is on record?
The class was 3 (Class 3 The value of percent of control at 10^−7 M was more than 60% or the value of IC50 was more than 200 nM.).

CN(C)c1cc(N[C@H]2CC[C@@H](CNC(=O)c3cccc(I)c3)CC2)nc2ccccc12 [compound 185, N-[(cis-4-{[4-(dimethylamino)quinolin-2-yl]amino}cyclohexyl)methyl]-3-iodobenzamide] was tested. Which class did it give?
Its class is 3 (Class 3 The value of percent of control at 10^−7 M was more than 60% or the value of IC50 was more than 200 nM.).

CN(C)c1cc(N[C@H]2CC[C@@H](CNC(=O)c3cccc(Cl)c3F)CC2)nc2ccccc12 [compound 186] was tested. Which class did it give?
Its class is 3 (Class 3 The value of percent of control at 10^−7 M was more than 60% or the value of IC50 was more than 200 nM.).

For Cc1ccc(C(=O)NC[C@H]2CC[C@@H](Nc3cc(N(C)C)c4ccccc4n3)CC2)c(F)c1F [compound 187], which class is on record?
The class was 3 (Class 3 The value of percent of control at 10^−7 M was more than 60% or the value of IC50 was more than 200 nM.).

With CN(C)c1cc(N[C@H]2CC[C@@H](CNC(=O)c3ccc(F)cc3Cl)CC2)nc2ccccc12 [compound 188] as the compound, how does the class read?
The class was 3 (Class 3 The value of percent of control at 10^−7 M was more than 60% or the value of IC50 was more than 200 nM.).
